This is an account of results in patent US20260167623A1 (NIKANG THERAPEUTICS, INC., priority 2022, published 2026).

This assay deals with T1, CDK2 (Homo sapiens, UniProt P24941).
T1 construct: High-Throughput Measurement of Cellular Endogenous CDK2; endogenous in cells; host or cells: OVCAR3
Kind of assay: Inhibition of CDK2: phospho-Rb (S807/811) HTRF measurement in OVCAR3 cells, 24 h. It is filed as cell-based. The note with it: 24 h compound treatment, read-out: pRB_OVCAR3_24h. The method in brief: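 OVCAR3 cells, seeded overnight, were exposed to compounds at 0.3 to 10,000 nM for 24 h, then lysed. Rb S807/811 phosphorylation read by HTRF (665/620 nm ratio) after 4 h detection at room temperature; data normalized to DMSO and IC50 from four-parameter logistic fit.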

Bounds are passed on as bounds.

As to `Cn1nc(N2CCC(=O)NC2=O)c2ccc(C3CCN(Cc4cnn(-c5cccc(S(=O)(=O)N6CCC(Nc7ncc(Cl)cn7)CC6)c5)c4)CC3)cc21` [Example 131, 1-(6-(1-((1-(3-((4-((5-chloropyrimidin-2-yl)amino)piperidin-1-yl)sulfonyl)phenyl)-1H-pyrazol-4-yl)methyl)piperidin-4-yl)-1-methyl-1H-indazol-3-yl)dihydropyrimidine-2,4(1H,3H)-dione], the IC50 lay in the range of 1 to 100 nM. The figure for `Cn1nc(N2CCC(=O)NC2=O)c2ccc(C3CCN(CC4CC5(C4)CN(c4cccc(S(=O)(=O)N6CCC(Nc7ncc(Cl)cn7)CC6)c4)C5)CC3)cc21` [Example 132, 1-(6-(1-((2-(3-((4-((5-chloropyrimidin-2-yl)amino)piperidin-1-yl)sulfonyl)phenyl)-2-azaspiro[3.3]heptan-6-yl)methyl)piperidin-4-yl)-1-methyl-1H-indazol-3-yl)dihydropyrimidine-2,4(1H,3H)-dione] is 1 to 100 nM; for `O=C1CCC(Nc2ccc(N3CCN(CC4CCN(c5cccc(S(=O)(=O)N6CCC(Nc7ncc(C(F)(F)F)cn7)CC6)c5)CC4)CC3)cc2)C(=O)N1` (stereo not drawn) [Example 133, 3-((4-(4-((1-(3-((4-((5-(trifluoromethyl)-pyrimidin-2-yl)amino)piperidin-1-yl)sulfonyl)phenyl)piperidin-4-yl)methyl)piperazin-1-yl)phenyl)amino)-piperidine-2,6-dione] it is 100 to 500 nM.

Consider `Cn1nc(N2CCC(=O)NC2=O)c2ccc(C3=CCN(CC4CCN(c5cccc(S(=O)(=O)N6CCC(Nc7ncc(Cl)cn7)CC6)c5)CC4)CC3)cc21` [Example 134, 1-(6-(1-((1-(3-((4-((5-chloropyrimidin-2-yl)amino)piperidin-1-yl)sulfonyl)phenyl)-piperidin-4-yl)methyl)-1,2,3,6-tetrahydropyridin-4-yl)-1-methyl-1H-indazol-3-yl)dihydropyrimidine-2,4(1H,3H)-dione], for which the IC50 lay within 100 to 500 nM.

Regarding `Cn1nc(N2CCC(=O)NC2=O)c2ccc(C3CCN(C[C@@H]4CCN(c5cccc(S(=O)(=O)N6CCC(Nc7ncc(Cl)cn7)CC6)c5)C4)CC3)cc21` [Example 135, (S)-1-(6-(1-((1-(3-((4-((5-chloropyrimidin-2-yl)amino)piperidin-1-yl)sulfonyl)phenyl)-pyrrolidin-3-yl)methyl)piperidin-4-yl)-1-methyl-1H-indazol-3-yl)dihydropyrimidine-2,4(1H,3H)-dione], the IC50 is 100 to 500 nM. As for `Cn1nc(N2CCC(=O)NC2=O)c2ccc(C3CCN(CC4CCCN(c5cccc(S(=O)(=O)N6CCC(Nc7ncc(Cl)cn7)CC6)c5)CC4)CC3)cc21` (stereo not drawn) [Example 136, 1-(6-(1-((1-(3-((4-((5-chloropyrimidin-2-yl)amino)piperidin-1-yl)sulfonyl)phenyl)-azepan-4-yl)methyl)piperidin-4-yl)-1-methyl-1H-indazol-3-yl)dihydropyrimidine-2,4(1H,3H)-dione], the IC50 was in the range of 100 to 500 nM. As for `Cn1nc(N2CCC(=O)NC2=O)c2cc(C3CCN(CC4CCN(c5cccc(S(=O)(=O)N6CCC(Nc7ncc(C(F)(F)F)cn7)CC6)c5)CC4)CC3)ccc21` [Example 137, 1-(1-methyl-5-(1-((1-(3-((4-((5-(trifluoro-methyl)pyrimidin-2-yl)amino)piperidin-1-yl)sulfonyl)phenyl)piperidin-4-yl)methyl)-piperidin-4-yl)-1H-indazol-3-yl)dihydropyrimidine-2,4(1H,3H)-dione], the IC50 fell in the range of 100 to 500 nM. Turning to `Cn1nc(N2CCC(=O)NC2=O)c2ccc(N3CCC(CN4CCN(c5cccc(S(=O)(=O)N6CCC(Nc7ncc(Cl)cn7)CC6)c5)CC4)CC3)cc21` [Example 138, 1-(6-(4-((4-(3-((4-((5-chloropyrimidin-2-yl)amino)piperidin-1-yl)sulfonyl)phenyl)-piperazin-1-yl)methyl)piperidin-1-yl)-1-methyl-1H-indazol-3-yl)dihydropyrimidine-2,4(1H,3H)-dione], the IC50 was greater than 2500 nM.

With `Cn1nc(N2CCC(=O)NC2=O)c2ccc(C3CCN(Cc4ccc(C5CCN(S(=O)(=O)N6CCC(Nc7ncc(Cl)cn7)CC6)CC5)cc4)CC3)cc21` [Example 139, 1-(6-(1-(4-(1-((4-((5-chloropyrimidin-2-yl)amino)piperidin-1-yl)sulfonyl)piperidin-4-yl)benzyl)piperidin-4-yl)-1-methyl-1H-indazol-3-yl)dihydropyrimidine-2,4(1H,3H)-dione], the IC50 was greater than 2500 nM. As for `Cn1nc(N2CCC(=O)NC2=O)c2ccc(C3CCN(CC4CCN(c5cc(S(=O)(=O)N6CCC(Nc7ncc(Cl)cn7)CC6)ccc5F)CC4)CC3)cc21` [Example 140, 1-(6-(1-((1-(5-((4-((5-chloropyrimidin-2-yl)amino)piperidin-1-yl)sulfonyl)-2-fluorophenyl)piperidin-4-yl)methyl)-piperidin-4-yl)-1-methyl-1H-indazol-3-yl)dihydropyrimidine-2,4(1H,3H)-dione], the IC50 lay within 1 to 100 nM. On to `CCOC(=O)C1(CN2CCC(c3ccc4c(N5CCC(=O)NC5=O)nn(C)c4c3)CC2)CCN(c2cccc(S(=O)(=O)N3CCC(Nc4ncc(Cl)cn4)CC3)c2)CC1` [Example 141, ethyl 1-(3-((4-((5-chloropyrimidin-2-yl)amino)piperidin-1-yl)sulfonyl)phenyl)-4-((4-(3-(2,4-dioxotetrahydropyrimidin-1(2H)-yl)-1-methyl-1H-indazol-6-yl)piperidin-1-yl)methyl)piperidine-4-carboxylate], for which the IC50 was 500 to 2500 nM.

With `Cn1nc(N2CCC(=O)NC2=O)c2ccc(C3CCN(CC4CCN(c5cc(S(=O)(=O)N6CCC(Nc7ncc(C(F)(F)F)cn7)CC6)ccc5F)CC4)CC3)cc21` [Example 142, 1-(6-(1-((1-(2-fluoro-5-((4-((5-(trifluoro-methyl)pyrimidin-2-yl)amino)piperidin-1-yl)sulfonyl)phenyl)piperidin-4-yl)methyl)-piperidin-4-yl)-1-methyl-1H-indazol-3-yl)dihydropyrimidine-2,4(1H,3H)-dione], the IC50 is 1 to 100 nM.

For the molecule `Cn1nc(N2CCC(=O)NC2=O)c2ccc(N3CCN(CC4CCN(c5cccc(S(=O)(=O)N6CCC(Nc7ncc(Cl)cn7)CC6)c5)CC4)C4CC43)cc21` (stereo not drawn) [Example 143, 1-(6-(5-((1-(3-((4-((5-chloropyrimidin-2-yl)amino)piperidin-1-yl)sulfonyl)phenyl)-piperidin-4-yl)methyl)-2,5-diazabicyclo-[4.1.0]heptan-2-yl)-1-methyl-1H-indazol-3-yl)dihydropyrimidine-2,4(1H,3H)-dione], the IC50 lay within 500 to 2500 nM.

Turning to `Cn1nc(N2CCC(=O)NC2=O)c2ccc(C3CCN(C[C@H]4CCN(c5cccc(S(=O)(=O)N6CCC(Nc7ncc(Cl)cn7)CC6)c5)C4)CC3)cc21` [Example 144, (R)-1-(6-(1-((1-(3-((4-((5-chloropyrimidin-2-yl)amino)piperidin-1-yl)sulfonyl)phenyl)-pyrrolidin-3-yl)methyl)piperidin-4-yl)-1-methyl-1H-indazol-3-yl)dihydropyrimidine-2,4(1H,3H)-dione], the IC50 is 100 to 500 nM. Turning to `Cn1nc(N2CCC(=O)NC2=O)c2cccc(C3CCN(CC4CCN(c5cccc(S(=O)(=O)N6CCC(Nc7ncc(C(F)(F)F)cn7)CC6)c5)CC4)CC3)c21` [Example 145, 1-(1-methyl-7-(1-((1-(3-((4-((5-(trifluoro-methyl)pyrimidin-2-yl)amino)piperidin-1-yl)sulfonyl)phenyl)piperidin-4-yl)methyl)-piperidin-4-yl)-1H-indazol-3-yl)dihydropyrimidine-2,4(1H,3H)-dione], the IC50 lay within 100 to 500 nM.
